# Data published in paper PMC9656482, “In Vitro and In Vivo Biological Activity of Ruthenium 1,10-Phenanthroline-5,6-dione Arene Complexes” (International Journal of Molecular Sciences, 2022).
# Experiments:
# [1] = Stability in DMSO-d6-D2O solution by 1H NMR; format: physicochemical; conditions: DMSO-d6-D2O 3:7 (v/v), 110 mM chloride, 48 h
# Procedure: To evaluate the stability of complexes in a cell culture medium, powdered complexes were first solubilized in DMSO and then immediately in DMEM, in order to guarantee that no more than 0.1% (v/v) DMSO was present in the medium. […] In addition, the stability of the complexes in solution was investigated by ^1H NMR spectroscopy. The ruthenium complexes were dissolved in DMSO-d6-D2O, in a 3:7 ratio (v/v) with a 110 mM chloride concentration, and the ^1H NMR spectra was recorded immediately and after 48 h. […] This observation is in agreement with the M–Cl aquation processes described for several metallic compounds, such as cisplatin [23]. After 48 h, the ^1H NMR spectrum of JHOR10 was unchanged.
# The stability of complexes was evaluated in DMEM (Dulbecco’s modified Eagle’s medium). Powdered complexes JHOR10 and JHOR11 were solubilized in DMSO and then immediately diluted in DMEM without phenol red (Thermo Fisher Scientific, Waltham, MA, USA) to a final concentration of 100 µM, assuring that the final concentration of DMSO was not higher than 0.1% (v/v). The UV-visible spectrum was measured after an incubation at 37 °C for 24 or 48 h (DMEM) in a wavelength range between 260 and 800 nm, using a quartz cuvette with 1 cm path length. A total of 2 mg of each compound was dissolved in DMSOd6-D2O 3:7 (v/v) 110 mM chloride concentration (NaCl), and the ^1H NMR were recorded at 0 h and 48 h on a Bruker Avance III 400 MHz.
# [2] = tested on: A2780 cells; assay: Senescence assay (beta-galactosidase fluorescence); format: cell-based, human; conditions: A2780, 48 h, IC50 of JHOR11, relative to DMSO
# Procedure: The senescence of A2780 cells after 48 h incubation with IC50 of JHOR11 was also analyzed to add more insights into the mechanism of action of the complex. Premature cellular senescence is an irreversible state of cell cycle arrest that occurs in response to intrinsic and extrinsic insults to the cell that induce DNA damage, oxidative stress, or nutrient depletion. The percentage of senescent cells was measured using the senescence assay kit (Abcam) that allows the quantification of the senescence-associated expression of beta-galactosidase activity by flow cytometry. […] [36].
# The cell senescence analysis was performed using the Senescence assay kit (beta galactosidade fluorescence, Abcam, Cambridge, UK) according to the manufacturer’s instruction with few modifications. Briefly, A2780 cells were seeded in 24 well-plates to a final cell density of 4 × 10^5 cells/well. After 24 h incubation, to assure cell adhesion to the wells, the medium was replaced by fresh media supplemented with 0.1% (v/v) DMSO, for vector control, 3.5 µM cisplatin, 0.1 µM Doxorubicin, or IC50 JHOR11. […] Pelleted cells were washed with wash buffer, resuspended in the same buffer and the percentage of fluorescent cells in each sample was immediately measured in an Attune focusing flow cytometer and respective software (Thermo Fisher Scientific).
# [3] = tested on: doxorubicin-resistant HCT116 (HCT116-Dox); conditions: read-out: Relative IC50, HCT116-Dox; 48 h incubation, MTS
# Procedure: (§1) The cytotoxic potential of the complexes was evaluated by assessing their viability using the 3-(4,5-dimethylthiazol-2-yl)-5-(3-carboxymethoxyphenyl)-2-(4-sulfophenyl)-2H tetrazolium, inner salt (MTS) colorimetric assay in three tumor cell lines—ovarian carcinoma, A2780, colorectal carcinoma, HCT116, and colorectal carcinoma resistant to doxorubicin, HCT116-Dox and in normal human primary dermal fibroblasts (Figure 1 and Figure S7).
# (§2) Normal dermal human fibroblasts, colorectal carcinoma cell line HCT116 and ovarian carcinoma cell line A2780 were acquired from ATCC (Manassas, VA, USA). HCT116 cell lines resistant to doxorubicin (HCT116-Dox) were derived from the HCT116 cell line, as previously described. Fibroblasts and HCT116 cells were cultured in Dulbecco’s modified Eagle medium (DMEM, Thermo Fisher Scientific) and A2780 cell line was cultured on Roswell Park Memorial institute 1640 (RPMI-1640, Thermo Fisher Scientific). Both media were supplemented with 10% (v/v) fetal bovine serum (FBS, Thermo Fisher Scientific) and a mixture of 100 U/mL penicillin and […] streptomycin. The supplemented media are referred to from this point on as DMEM or RPMI for simplicity.
# [4] = tested on: normal human dermal fibroblasts; conditions: read-out: Relative IC50, Fibroblasts; 48 h incubation, MTS
# Procedure: as §1, §2
# [5] = tested on: HCT116 colorectal carcinoma cell line; assay: MTS antiproliferative assay, HCT116; format: cell-based, human
# Procedure: Normal dermal human fibroblasts, colorectal carcinoma cell line HCT116 and ovarian carcinoma cell line A2780 were acquired from ATCC (Manassas, VA, USA). […] Fibroblasts and HCT116 cells were cultured in Dulbecco’s modified Eagle medium (DMEM, Thermo Fisher Scientific) and A2780 cell line was cultured on Roswell Park Memorial institute 1640 (RPMI-1640, Thermo Fisher Scientific). Both media were supplemented with 10% (v/v) fetal bovine serum (FBS, Thermo Fisher Scientific) and a mixture of 100 U/mL penicillin and 100 mg/mL streptomycin. The supplemented media are referred to from this point on as DMEM or RPMI for simplicity. […] All experiments underwent at 37 °C, 5% (v/v) CO2 and 99% (v/v) humidity in the dark.
# Cells were seeded in a 96-well plate in a density of 7500 cells/well, and after 24 h was submitted to a concentration range between 0.1–50 µM of complexes JHOR10 and JHOR11. DMSO with a 0.1% (v/v) concentration was used as vector control and cisplatin was used as positive control in all replicates. After 48 h incubation, cellular viability was inferred with the Cell Titer 96® Aqueous One solution cell proliferation assay (Promega, Madison, WI, USA) according to the manufacturer’s instructions and procedures previously described [18, 40]. The absorbance of the produced Formazan was quantified with a Tecan microplate reader, Infinite M200 (Tecan, Mannedorf, Switzerland) and the analysis of the dose–response curves to determine the relative IC50 was performed with GraphPad Prism 8.2.1 software (GraphPad Software, La Jolla, CA, USA).
compound,measurement,setting,value
Cc1ccc(C(C)C)cc1.F[P-](F)(F)(F)(F)F.O=C1C(=O)c2cccnc2-c2ncccc21.[Cl][Ru+] [JHOR11],stability in solution by 1H NMR after 48 h,[1],the majority of the complex remained intact
same,percentage of senescent cells,[2],increased percentage of senescent cells
same,IC50,[3],6.8 ± 0.3 µM
same,IC50,[4],44.5 ± 2.2 µM
same,IC50,"[5]; 48 h incubation, MTS, read-out: Relative IC50, HCT116",5.5 ± 0.3 µM
same,selective index in HCT116,[5]; relative to fibroblasts,8.1
